Experimental data reported in patent US20240083885A1, “COMPOSITIONS AND METHODS FOR INHIBITING M PRO PROTEASE ACTIVITY AND FOR PREVENTING AND TREATING SARS-COV-2 INFECTION” (priority 2020, published 2024).
Several values for one entry are separate records, joined by “and”; a condition that tells them apart may be missing. Identical values can stand only once. Like-named read-outs stand apart in the source and are kept apart here.

Legend:
[1] = target: T1, SARS-CoV-2 M^pro (Severe acute respiratory syndrome coronavirus 2 (2019-nCoV) (SARS-CoV-2), UniProt P0DTD1); assay: biochemical
[2] = in vitro; details: African green monkey, CC50 in Vero E6 cells
[3] = in vitro; details: human, CC50 in Calu-3 cells
[4] = test system: SARS-CoV-2; assay: microbe, parasite or virus in culture; format: cell-based; details: Severe acute respiratory syndrome coronavirus 2; read-out: antiviral EC50 against SARS-CoV-2 in Caco2-hACE2 cells
[5] = target: T1, SARS-CoV-2 M^pro; assay: cell-based
[6] = target: T2, Cathepsin L (Homo sapiens (Human), UniProt P07711); assay: Host protease FRET-based enzymatic assay: cathepsin L; format: biochemical
T2 sequence (P07711 114-333 limits assumed): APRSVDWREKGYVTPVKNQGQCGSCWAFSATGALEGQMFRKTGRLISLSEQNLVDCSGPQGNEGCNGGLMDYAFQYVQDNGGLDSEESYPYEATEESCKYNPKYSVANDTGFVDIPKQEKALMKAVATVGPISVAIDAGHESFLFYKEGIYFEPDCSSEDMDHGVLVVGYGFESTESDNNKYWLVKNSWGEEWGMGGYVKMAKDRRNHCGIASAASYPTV
Experimental: The cathepsin L enzymatic assay was carried out as follows: human liver cathepsin L (EMD Millipore 219402) was activated by incubating at reaction buffer (20 mM sodium acetate, 1 mM EDTA and 5 mM DTT pH5.5) for 30 min at 30° C. Upon activation, the assay was assembled in 96-well plates with 100 μl of 300 pM cathepsin L protein in cathepsin L reaction buffer. Then 1 μl testing compound at various concentrations was added to each well and incubated at 30° C. for 30 min. The enzymatic reaction was initiated by adding 1 μl of 100 μM FRET substrate Z-Phe-Arg-AMC (the final substrate concentration is about 1 μM). The reaction was monitored in a Cytation 5 image reader with filters for excitation at 360/40 nm and emission at 460/40 nm at 30° C. for 1 hr. The IC50 values were calculated as described in above section.
(§1) Enzymatic reactions against host proteases (Calpain I, Cathepisn K, Cathespsin L, Caspase-3 and Trypisn) were carried out as previously described (see, Xia, Z.; et al., ACS Pharmacol. Transl. Sci. 2021). Cathepsin B assay reaction was carried out as follows: Cathepsin B (catalog no. CTB-H5222) was diluted into 100 nM final concentration in a buffer containing 20 mM sodium acetate pH5.5, 1 mM EDTA and 2 mM DTT and the mixture was incubated for 30 min at 30° C. Activated Cathepsin B was further diluted to 500 pm in the reaction buffer (100 mM MES pH6.0, 1 mM EDTA, 2 mM DTT and 0.01% TWEEN 20).

[7] = Cytotoxicity in Vero E6 cells (neutral red uptake); details: African green monkey, CC50 in Vero E6 cells
[8] = target: cathepsin K (Homo sapiens (Human), UniProt P43235); format: biochemical
Sequence of cathepsin K (P43235 115-329 limits assumed): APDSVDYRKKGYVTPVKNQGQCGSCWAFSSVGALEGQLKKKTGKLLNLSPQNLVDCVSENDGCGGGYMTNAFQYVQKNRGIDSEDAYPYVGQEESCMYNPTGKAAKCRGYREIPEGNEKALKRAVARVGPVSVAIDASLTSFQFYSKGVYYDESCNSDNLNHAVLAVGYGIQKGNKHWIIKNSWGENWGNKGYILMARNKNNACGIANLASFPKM

[9] = target: T3, Cathepsin B (Homo sapiens (Human), UniProt P07858); assay: Host protease FRET-based enzymatic assay: cathepsin B; format: biochemical
Experimental: as §1

[10] = test system: trypsin; assay: Host protease FRET-based enzymatic assay: trypsin; format: biochemical
[11] = test system: SARS-CoV-2; assay: microbe, parasite or virus in culture; format: cell-based; details: Severe acute respiratory syndrome coronavirus 2, Vero C1008; read-out: antiviral EC50 against SARS-CoV-2 in Vero E6 cells
[12] = target: caspase-3 (Homo sapiens (Human), UniProt P42574); assay: Host protease FRET-based enzymatic assay: caspase-3; format: biochemical
Sequence of caspase-3 (P42574 29-175 limits assumed): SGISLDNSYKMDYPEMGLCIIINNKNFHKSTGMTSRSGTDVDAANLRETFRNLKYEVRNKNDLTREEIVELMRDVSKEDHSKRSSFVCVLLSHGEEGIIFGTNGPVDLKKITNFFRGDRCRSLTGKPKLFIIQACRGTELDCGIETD
Sequence of caspase-3 (P42574 176-277 limits assumed): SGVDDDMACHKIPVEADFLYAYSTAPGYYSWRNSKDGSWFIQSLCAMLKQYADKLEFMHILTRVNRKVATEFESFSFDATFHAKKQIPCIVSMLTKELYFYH
Experimental: as §1

[13] = target: calpain I (Homo sapiens (Human), UniProt P07384); assay: Host protease FRET-based enzymatic assay: calpain I; format: biochemical
Experimental: as §1

[14] = target: T1, SARS-CoV-2 M^pro; format: binding; details: for mass modification (mass shift) of M^pro adduct: native mass spectrometry, covalent adduct
[15] = target: T1, SARS-CoV-2 M^pro; assay: biochemical; remark: listed apart in the source
[16] = target: T2, Cathepsin L; details: cited from earlier work
[17] = target: T3, Cathepsin B; details: cited from earlier work
[18] = target: SARS-CoV M^pro (Severe acute respiratory syndrome coronavirus (SARS-CoV), UniProt P0C6X7); assay: biochemical
[19] = target: T1, SARS-CoV-2 M^pro; assay: biochemical; format: binding
[20] = target: SARS-CoV-2 papain-like protease (PL^pro) (Severe acute respiratory syndrome coronavirus 2 (2019-nCoV) (SARS-CoV-2), UniProt P0DTD1); assay: biochemical
[21] = test system: SARS-CoV-2; assay: microbe, parasite or virus in culture; format: cell-based; details: Severe acute respiratory syndrome coronavirus 2, Calu-3; read-out: antiviral EC50 against SARS-CoV-2 in Calu-3 cells
[22] = test system: Calu-3 cells; details: human, 5 days
[23] = read-out: IC50 against SARS-CoV-2 M^pro
[24] = read-out: Additional off targets: Cathepsin B IC50

## C[C@H](NC(=O)[C@@H](c1cccnc1)N(C(=O)CCl)c1ccc(-n2cccc2)cc1)c1ccccc1 [Jun9-57-3R, N-(4-(1H-pyrrol-1-yl)phenyl)-2-chloro-N-((R)-2-oxo-2-(((S)-1-phenylethyl)amino)-1-(pyridin-3-yl)ethyl)acetamide]
[1]; [23]
  IC50: 0.05 µM
[2]
  CC50 at 5 days: < 11000 nM
[3]
  CC50 at 5 days: < 2000 nM

## C[C@H](NC(=O)[C@@H](c1cccnc1)N(C(=O)C(Cl)Cl)c1ccc(-c2ccccc2)cc1)c1ccccc1 [Jun9-62-2R, N-([1,1′-biphenyl]-4-yl)-2,2-dichloro-N-((R)-2-oxo-2-(((S)-1-phenylethyl)amino)-1-(pyridin-3-yl)ethyl)acetamide]
[4]
  EC50: 2050 nM
[1]
  change of IC50 with pre-incubation time: longer pre-incubation time gave lower IC50 values
[5]
  EC50: 960 nM
[6]
  inhibition of cathepsin L (IC50): did not show potent inhibition
[7]
  CC50 at 5 days: > 100000 nM
[8]
  inhibition of cathepsin K: did not show potent inhibition
[9]
  inhibition of cathepsin B: did not show potent inhibition
[10]
  inhibition of trypsin (IC50): did not show potent inhibition
[11]
  EC50: 900 nM
[12]
  inhibition of caspase-3 (IC50): did not show potent inhibition
[13]
  inhibition of calpain I: did not show potent inhibition

## C[C@H](NC(=O)[C@@H](c1cccnc1)N(C(=O)C(Br)(Br)Br)c1ccc(-c2ccccc2)cc1)c1ccccc1 [Jun9-88-6R, N-([1,1′-biphenyl]-4-yl)-2,2,2-tribromo-N-((R)-2-oxo-2-(((S)-1-phenylethyl)amino)-1-(pyridin-3-yl)ethyl)acetamide]
[4]
  EC50: 2150 nM
[1]; [23]
  IC50: 0.08 µM
[5]
  EC50: 920 nM
[6]
  IC50: 7370 nM
  selectivity for inhibiting SARS-CoV-2 M^pro over cathepsin L: 94 fold
[8]
  inhibition of cathepsin K: did not show potent inhibition
[14]
  mass modification (mass shift) of M^pro adduct: 526 Da
[9]
  inhibition of cathepsin B: did not show potent inhibition
[15]
  kinact/KI: 7070 M⁻¹ s⁻¹
[10]
  inhibition of trypsin (IC50): did not show potent inhibition
[11]
  EC50: 580 nM
[2]
  CC50 at 5 days: 5480 nM
[12]
  inhibition of caspase-3 (IC50): did not show potent inhibition
[13]
  inhibition of calpain I: did not show potent inhibition

## PF-00835231
[16]; read-out: Cathepsin L IC50
  IC50: 146 nM
[17]; [24]
  IC50: 1300 nM

## O=C(NC1CCCC1)C(c1cccnc1)N(C(=O)CCl)c1ccc(-c2ccccc2)cc1 (centres unmarked) [Jun9-55-1, 2-(N-{[1,1′-biphenyl]-4-yl}-2-chloroacetamido)-N-cyclopentyl-2-(pyridin-3-yl)acetamide]
[2]
  CC50 at 5 days: < 11000 nM
[3]
  CC50 at 5 days: < 2000 nM

## C[C@H](NC(=O)[C@@H](c1cccnc1)N(C(=O)C(Cl)(Br)Br)c1ccc(-c2ccccc2)cc1)c1ccccc1 [Jun9-89-4R, N-([1,1′-biphenyl]-4-yl)-2,2-dibromo-2-chloro-N-((R)-2-oxo-2-(((S)-1-phenylethyl)amino)-1-(pyridin-3-yl)ethyl)acetamide]
[1]; [23]
  IC50: 0.05 µM
[14]
  mass modification (mass shift) of M^pro adduct: 481 Da and 561 Da
[2]
  CC50 at 5 days: 8410 nM

## C[C@H](NC(=O)C(c1cnccn1)N(C(=O)CCl)c1ccc(-c2ccccc2)cc1)c1ccccc1 (stereo partly drawn) [Jun9-59-1, 2-(N-{[1,1′-biphenyl]-4-yl}-2-chioroacetamido)-N-[(1S)-1-phenylethyl]-2-(pyrazin-2-yl)acetamide]
[2]
  CC50 at 5 days: < 11000 nM
[3]
  CC50 at 5 days: < 2000 nM

## O=C(NC1CC1)C(c1cccnc1)N(C(=O)CCl)c1ccc(-c2ccccc2)cc1 (centres unmarked) [Jun9-57-2, N-([1,1′-biphenyl]-4-yl)-2-chloro-N-(2-(cyclopropylamino)-2-oxo-1-(pyridin-3-yl)ethyl)acetamide]
[2]
  CC50 at 5 days: < 11000 nM
[3]
  CC50 at 5 days: < 2000 nM

## C[C@H](NC(=O)[C@@H](c1cccnc1)N(C(=O)C(Br)Br)c1ccc(-c2ccccc2)cc1)c1ccccc1 [Jun9-89-2R]
[1]; IC50 against SARS-CoV-2 M^pro
  IC50: 0.08 µM
[14]
  mass modification (mass shift) of M^pro adduct: 526 Da
[2]
  CC50 at 5 days: 8940 nM

## C[C@H](NC(=O)[C@H](c1cccnc1)N(C(=O)CCl)c1ccc(-n2cccc2)cc1)c1ccccc1 (stereo in doubt) [Jun9-57-3S]
[1]; [23]
  IC50: 1.13 µM
[2]
  CC50 at 5 days: < 11000 nM
[3]
  CC50 at 5 days: < 2000 nM

## C[C@@H](CCc1ccccc1)NC(=O)[C@@H](c1cccnc1)N(C(=O)C(Cl)Cl)c1ccc(-c2ccccc2)cc1 (single isomer, unassigned) [Jun9-90-4R]
[4]
  EC50: 1430 nM
[1]; [23]
  IC50: 0.46 µM
[5]
  EC50: 1570 nM
[15]
  kinact/KI: 867 M⁻¹ s⁻¹
[11]
  EC50: 1100 nM
[2]
  CC50 at 5 days: > 100000 nM

## C[C@@H](OC(C)(C)C)[C@H](NC(=O)OCc1ccccc1)C(=O)N[C@@H](CC1CCCCC1)C(=O)N[C@H](C=O)C[C@@H]1CCNC1=O [MPI8]
[16]; read-out: Cathepsin L IC50
  IC50: 1.2 nM
[16]; read-out: IC50 cathepsin L (recent study)
  IC50: 230 nM
[17]; [24]
  IC50: 230 nM
[17]; read-out: IC50 cathepsin B (recent study)
  IC50: 1.2 nM

## C[C@H](NC(=O)C(c1cccnc1)N(C(=O)c1ccco1)c1ccc(-c2ccccc2)cc1)c1ccccc1 (single isomer, unassigned) [Compound 23R]
[1]
  change of IC50 with pre-incubation time: did not lead to significant changes of the IC50 value
[1]; IC50 against SARS-CoV-2 M^pro
  IC50: 0.15 µM and 0.13 µM
[1]; SARS-COV-2 main protease enzymatic inhibition (separated diastereomers, printed as EC50)
  EC50: 150 nM
[1]; SARS-CoV-2 M^pro IC50 (μM)
  IC50: 0.15 ± 0.03 µM
[18]
  IC50: 270 ± 30 nM
[14]
  binding to SARS-CoV-2 M^pro in native mass spectrometry: dose-dependent binding
[19]
  Kd: 9430 nM
[20]; IC50 against SARS-CoV-2 papain-like protease (PL^pro)
  IC50: > 20 µM
[20]; SARS-CoV-2 PL^pro IC50 (μM)
  IC50: > 60 µM

## CC#CC(=O)N(c1ccc(-c2ccccc2)cc1)C(C(=O)N[C@@H](C)c1ccccc1)c1cccnc1 (stereo partly drawn) [Jun9-62-1, N-([1,1′-hiphenyl]-4-yl)-N-(2-oxo-2-(((S)-1-phenylethyl)amino)-1-(pyridin-3-yl)ethyl)but-2-ynamide]
[1]; [23]
  IC50: 1.15 µM
[2]
  CC50 at 5 days: 18000 nM
[3]
  CC50 at 5 days: 47800 nM

## C[C@H](NC(=O)[C@@H](c1cccnc1)N(C(=O)C(Cl)Cl)c1ccc(-c2ccccc2)cc1)c1ccc(Br)cc1 [Jun9-90-3R]
[4]
  EC50: 3240 nM
[1]; [23]
  IC50: 0.3 µM
[5]
  EC50: 910 nM
[15]
  kinact/KI: 1540 M⁻¹ s⁻¹
[11]
  EC50: 2070 nM
[2]
  CC50 at 5 days: > 100000 nM
[21]
  EC50: 2000 nM

## C[C@H](NC(=O)C(c1cccnc1)N(C(=O)CCl)c1ccc(-c2ccccc2)cc1)c1ccccc1 (stereo partly drawn) [Jun9-54-1, 2-(N-{[1,1′-biphenyl]-4-yl}-2-chloroacetamido)-N-[(1S)-1-phenylethyl]-2-(pyridin-3-yl)acetamide]
[1]; [23]
  IC50: 0.17 µM
[3]
  CC50 at 5 days: < 2000 nM
[22]
  CC50: < 3500 nM
